Reference: patent publication US20250144067A1, “PERSONALIZED STARVATION THERAPY FOR CANCER” (Faeth Therapeutics, Inc., priority 2021, published 2025)
Structures can show the parent of a compound that is named as a salt. Where two headings read alike, the source gives them in different places.

Columns and labels:
[1] = tested on: NCI-H292 lung cancer cells; assay: FDA drug screening, complete media vs cholesterol-free media without statin (TABLE 1); type: cell-based, human
[2] = tested on: NCI-H292 lung cancer cells; assay: FDA drug screening, complete media vs cholesterol-free media with simvastatin (TABLE 2); type: cell-based, human
[3] = Complete minus Cholesterol-free, greater than 0 enhanced anti-cancer activity, about 0 neutral, below 0 antagonist
[4] = NCI-H292 cells, FDA drug library screen, cholesterol-free media without statin
[5] = NCI-H292 cells, FDA drug library screen, complete media
[6] = NCI-H292 cells, cholesterol-free media with simvastatin 0.04 μM, cell growth value in FDA drug screen
[7] = NCI-H292 cells, complete media, cell growth value in FDA drug screen
[8] = complete media minus cholesterol-free media + simvastatin, >0 enhanced anti-cancer activity, about 0 neutral, <0 antagonist
[9] = NCI-H292 cells, cholesterol-free media without statin, FDA drug library screen
[10] = NCI-H292 cells, complete media, FDA drug library screen
[11] = NCI-H292 cells, cholesterol-free media with simvastatin 0.04 μM, FDA drug library screen (TABLE 2)
[12] = NCI-H292 cells, complete media, FDA drug library screen (TABLE 2)
[13] = Complete minus Cholesterol-free, >0 enhanced anti-cancer activity, about 0 neutral, <0 antagonist
[14] = NCI-H292 cells, cholesterol-free media without statin
[15] = complete media minus cholesterol-free media + simvastatin (0.04 μM), >0 enhanced anti-cancer activity, about 0 neutral, <0 antagonist
[16] = NCI-H292 cells, FDA library drug in cholesterol-free media with simvastatin 0.04 μM
[17] = NCI-H292 cells, FDA library drug in complete media
[18] = complete media vs cholesterol-free media + simvastatin (0.04 μM), >0 enhanced anti-cancer activity, about 0 neutral, <0 antagonist
[19] = Complete minus Cholesterol-free, greater than 0 enhanced anti-cancer activity, about 0 neutral, below 0 antagonists
[20] = NCI-H292 cells in cholesterol-free media without statin
[21] = NCI-H292 cells in complete media
[22] = NCI-H292 cells, FDA drug library screen, cholesterol-free media with simvastatin 0.04 μM
[23] = complete vs cholesterol-free media, >0 enhanced anti-cancer activity, about 0 neutral, <0 antagonist

`C=CC(=O)Nc1cc(Nc2nccc(-c3cn(C)c4ccccc34)n2)c(OC)cc1N(C)CCN(C)C` [Osimertinib] gave a Difference [1, 3] of −0.14, a Cholesterol-free [1, 4] of 0.477 and a Complete [1, 5] of 0.3332. The “Cholesterol-free media + simvastatin (0.04 μM)” value [2, 6] was 0.2666, the “Complete Media” value [2, 7] was 0.3123 and the Difference [2, 8] was 0.05.
Work on `OCCOc1ccc(/C(=C(/CCCl)c2ccccc2)c2ccccc2)cc1` [Ospemifene] yielded a Cholesterol-free [1] of 1.029, a Complete [1] of 1.255 and a Difference [1] of 0.23. For the same compound, the “Cholesterol-free media + simvastatin (0.04 μM)” value [2] was 1.909, the “Complete Media” value [2] was 1.222 and the Difference [2] was −0.69.
With `CCCCCCCCOc1ccccc1C(=O)Nc1ccc(C(=O)OCC[N+](C)(CC)CC)cc1.[Br-]` [Otilonium (bromide)] the Cholesterol-free [1] was 1.132, the Complete [1] was 0.8071 and the Difference [1] was −0.32. For the same compound, the “Cholesterol-free media + simvastatin (0.04 μM)” value [2] was 0.9764, the “Complete Media” value [2] was 1.024 and the Difference [2] was 0.05.
Compound `C[C@@H]1O[C@@H](O[C@H]2C[C@@H](O)[C@]3(CO)[C@H]4[C@H](O)C[C@]5(C)[C@@H](C6=CC(=O)OC6)CC[C@]5(O)[C@@H]4CC[C@]3(O)C2)[C@H](O)[C@H](O)[C@H]1O.O.O.O.O.O.O.O.O` [Ouabain (Octahydrate)] has a Difference ([1]; Complete minus Cholesterol-free, […]) of 0.01, a Cholesterol-free [1, 9] of −0.009774 and a Complete [1, 10] of −0.0006686. The “Cholesterol-free media + simvastatin (0.04 μM)” value [2, 11] was 0.0005446, the “Complete Media” value [2, 12] was −0.01106 and the Difference ([2]; complete media minus cholesterol-free media + simvastatin (0.04 μM), […]) was −0.01.
`CC(=O)N1C[C@H](O)C[C@H]1C(=O)O` [Oxaceprol] was tested, and the Difference [1, 13] was −0.27, the Cholesterol-free [1, 14] was 0.9566 and the Complete ([1]; NCI-H292 cells, complete media) was 0.6838. The “Cholesterol-free media + simvastatin (0.04 μM)” value [2, 11] was 0.8786, the “Complete Media” value [2, 12] was 0.8552 and the Difference [2, 15] was −0.02.
Compound `Cc1onc(-c2ccccc2)c1C(=O)N[C@@H]1C(=O)N2[C@@H]1SC(C)(C)[C@@H]2C(=O)O` [Oxacillin (sodium monohydrate)] has a Difference [1, 13] of −0.02, a Cholesterol-free [1, 9] of 0.9255 and a Complete [1, 10] of 0.9062. The “Cholesterol-free media + simvastatin (0.04 μM)” value [2, 16] was 1.304, the “Complete Media” value [2, 17] was 1.035 and the Difference [2, 18] was −0.27.
`CN1CCCN=C1/C=C/c1cccc(O)c1.O=C(O)c1cc2ccccc2c(Cc2c(O)c(C(=O)O)cc3ccccc23)c1O` [Oxantel (pamoate)] showed a Difference [1, 19] of −0.51, a Cholesterol-free [1, 20] of 1.526 and a Complete [1, 21] of 1.019. The “Cholesterol-free media + simvastatin (0.04 μM)” value [2, 22] was 0.9072, the “Complete Media” value [2, 5] was 1.051 and the Difference [2, 8] was 0.14.
With `O=C(O)CCc1nc(-c2ccccc2)c(-c2ccccc2)o1` [Oxaprozin] the Difference [1, 3] was −0.11, the Cholesterol-free [1, 4] was 1.125 and the Complete [1, 5] was 1.011. The “Cholesterol-free media + simvastatin (0.04 μM)” value [2, 11] was 0.8941, the “Complete Media” value [2, 12] was 0.904 and the Difference [2, 15] was 0.01.
Compound `NC(=O)N1c2ccccc2CC(=O)c2ccccc21` [Oxcarbazepine] has a Cholesterol-free [1, 9] of 0.8341, a Complete [1, 10] of 1.538 and a Difference [1, 23] of 0.70. For the same compound, the “Cholesterol-free media + simvastatin (0.04 μM)” value [2, 16] was 1.305, the “Complete Media” value [2, 17] was 0.9097 and the Difference [2, 18] was −0.40.
For `CN(C(=O)CN(CCO)CC(=O)N(C)C(C)(C)Cc1ccccc1)C(C)(C)Cc1ccccc1` [Oxethazaine], the Difference [1, 19] was −1.45, the Cholesterol-free [1, 20] was 2.442 and the Complete [1, 21] was 0.9966. The “Cholesterol-free media + simvastatin (0.04 μM)” value [2, 22] was 1.131, the “Complete Media” value [2, 5] was 0.9874 and the Difference [2, 18] was −0.14.
`Clc1ccc(CO/N=C(\Cn2ccnc2)c2ccc(Cl)cc2Cl)c(Cl)c1` [Oxiconazole nitrate] showed a Difference [1, 13] of 0.00, a Cholesterol-free [1, 9] of 0.7425 and a Complete [1, 10] of 0.7401. The “Cholesterol-free media + simvastatin (0.04 μM)” value [2, 22] was 0.3071, the “Complete Media” value [2, 5] was 1.067 and the Difference [2, 8] was 0.76.
Work on `NC(=O)CN1CC(O)CC1=O` (stereo not drawn) [Oxiracetam] yielded a Difference [1, 13] of −0.22, a Cholesterol-free [1, 14] of 1.104 and a Complete ([1]; NCI-H292 cells, complete media) of 0.8826. The “Cholesterol-free media + simvastatin (0.04 μM)” value [2, 16] was 1.234, the “Complete Media” value [2, 17] was 0.9456 and the Difference [2, 18] was −0.29.
Work on `C=CCOc1ccccc1OCC(O)CNC(C)C` (stereo not drawn) [Oxprenolol (hydrochloride)] yielded a Cholesterol-free [1, 9] of 1.177, a Complete [1, 10] of 1.262 and a Difference [1, 23] of 0.09. The “Cholesterol-free media + simvastatin (0.04 μM)” value [2, 6] was 0.8718, the “Complete Media” value [2, 7] was 0.9135 and the Difference [2, 8] was 0.04.
